Our source for the logP values is the SangsterLogP compilation.

The series is described as follows: method code SF-AS, from DOI: 10.1897/1552-8618(1992)11[901:aapohp]2.0.co;2.

Turning to `NC(=O)c1ccccc1I`, the logP is 0.93.

`COc1ccccc1F` gave a logP of 2.14.

Turning to `CC(=O)Nc1cc(F)cc(C(F)(F)F)c1Cl`, the lipophilicity (logP) came out at 2.86.

The molecule `CC(=O)Nc1cc(Cl)cc(Cl)c1` had a lipophilicity (logP) of 3.17.

With `CC(=O)Nc1cc(C(F)(F)F)c(Cl)cc1F`, the logP was found to be 3.02.

For `CC(=O)Nc1ccccc1I`, the logP worked out at 1.62.

Regarding `CC(=O)Nc1cc(Cl)cc(C(F)(F)F)c1F`, the logP is 3.15.

As to `CC(=O)Nc1cc(Cl)cc(C(F)(F)F)c1Cl`, the logP was found to be 3.27.

Turning to `COc1c(C)cccc1C`, the log partition coefficient (logP) stood at 3.02.

As to `CC(=O)Nc1c(C)cccc1[N+](=O)[O-]`, the logP is 0.61.

Molecule `CCCCc1ccc(NC(C)=O)c(C)c1` showed a log partition coefficient (logP) of 3.1.

With `CC(=O)Nc1ccc(Cl)cc1F`, the logP was found to be 1.91.

`CC(=O)Nc1ccc(C)c(C)c1C` returned a logP of 1.76.

`CC(=O)Nc1cc(C(F)(F)F)ccc1F`: the lipophilicity (logP) is 2.24.

Molecule `CCc1cccc(CC)c1NC(C)=O` showed a logP of 1.85.

For the molecule `CCCc1cc(NC(C)=O)ccc1OC`, the logP amounted to 2.72.

Consider `COc1cccc([N+](=O)[O-])c1C(N)=O`, for which the log partition coefficient (logP) is -0.26.

`COc1cccc(OC)c1C` yielded a logP of 2.87.

In the case of `CC(=O)Nc1cccc(Cl)c1Cl`, the logP came out at 2.09.

The molecule `COc1cccc(NC(C)=O)c1C` registered a logP of 1.13.

For the molecule `CC(=O)Nc1ccc(Cl)c(C(F)(F)F)c1`, the logP was 3.33.

The molecule `CC(=O)Nc1cc(C(F)(F)F)c(F)cc1F` showed a logP of 2.34.

On to `CC(=O)Nc1c(Cl)cccc1Cl`, for which the logP came out at 1.32.

In turn, `CC(=O)Nc1cc(Cl)ccc1Cl` had a logP of 2.19.

Take `COc1ccc(NC(C)=O)c([N+](=O)[O-])c1`: the lipophilicity (logP) is 1.09.

As to `CC(=O)Nc1c(F)c(F)c(F)c(F)c1F`, the lipophilicity (logP) turned out to be 1.7.

`CC(=O)Nc1ccc(Oc2ccccn2)cc1` registered a logP of 1.57.

Turning to `CC(=O)Nc1c(C)cc(C)cc1[N+](=O)[O-]`, the logP was 1.18.

With `CC(=O)Nc1c(C)cccc1Cl`, the lipophilicity (logP) came to 1.22.

Regarding `COc1cccc(Cl)c1C(N)=O`, the logP came out at 0.59.

As to `CC(=O)Nc1c(C)cccc1C`, the logP is 1.07.

In turn, `CC(=O)Nc1cccc(Cl)c1C` showed a lipophilicity (logP) of 1.82.

Take `CCc1cccc(C(C)C)c1NC(C)=O`: the logP was determined as 2.1.

Take `CC(=O)Nc1cc(C(F)(F)F)cc(C(F)(F)F)c1Br`: the lipophilicity (logP) worked out at 3.51.

With `CCCCc1ccc(NC(C)=O)cc1C`, the logP worked out at 3.64.

In the case of `NC(=O)c1c(Cl)cccc1[N+](=O)[O-]`, the log partition coefficient (logP) turned out to be 0.12.

The molecule `CC(C)c1ccccc1C(N)=O` yielded a logP of 1.39.

As to `O=[N+]([O-])c1cc(C(F)(F)F)cc([N+](=O)[O-])c1Cl`, the logP amounted to 2.5.

For the molecule `CC(=O)Nc1cc(C(F)(F)F)c(Cl)cc1Cl`, the log partition coefficient (logP) was determined as 3.24.

`CC(=O)Nc1cc(C(F)(F)F)cc(C(F)(F)F)c1` had a logP of 3.72.

`CC(=O)Nc1cccc(Cl)c1F` had a logP of 1.83.

`NC(=O)c1c(F)cccc1Cl` yielded a logP of 0.49.

`COc1c(C)cccc1NC(C)=O` gave a lipophilicity (logP) of 1.28.

The molecule `CCc1ccccc1OC` showed a logP of 3.18.

As for `O=[N+]([O-])c1ccc(Cl)cc1[N+](=O)[O-]`, the logP was determined as 2.18.

`CC(=O)Nc1ccccc1Oc1ccccc1` returned a logP of 2.37.

With `COc1ccc(C)c(OC)c1`, the lipophilicity (logP) turned out to be 2.76.

With `CC(=O)Nc1ccc(C)c(C)c1`, the log partition coefficient (logP) turned out to be 2.1.

Take `CC(=O)Nc1ccccc1-c1ccccc1`: the lipophilicity (logP) stood at 2.02.

`CC(=O)Nc1cc(C)ccc1C` returned a log partition coefficient (logP) of 1.47.

As to `CC(=O)Nc1ccc(Cl)c(Cl)c1Cl`, the lipophilicity (logP) was found to be 2.88.

The molecule `CC(=O)Nc1cccc([N+](=O)[O-])c1` returned a logP of 1.47.

As to `N#Cc1ccccc1C#N`, the lipophilicity (logP) stood at 0.99.

`COc1cccc(OC)c1C(N)=O` gave a logP of -0.22.

In the case of `Cc1ccccc1C(N)=O`, the logP worked out at 0.76.

Consider `CC(=O)Nc1cc(C(F)(F)F)cc(Cl)c1Cl`, for which the logP was found to be 3.27.

On to `NC(=O)c1ccccc1C(F)(F)F`, for which the log partition coefficient (logP) came out at 0.68.

The molecule `CC(=O)Nc1cc(C)cc(C)c1` yielded a logP of 2.17.

Molecule `CC(=O)Nc1cc(Cl)c(Cl)c(Cl)c1` came in with a lipophilicity (logP) of 3.76.

In turn, `CC(=O)Nc1ccc(C)cc1C` had a logP of 1.46.

In turn, `CC(=O)Nc1c(C(C)C)cccc1C(C)C` showed a lipophilicity (logP) of 2.41.

`COc1c(Cl)cccc1NC(C)=O`: the logP was 1.68.

In turn, `CCCCc1ccc(NC(C)=O)cc1` came in with a log partition coefficient (logP) of 3.3.

`CC(=O)Nc1ccc(Cl)cc1C(F)(F)F` showed a logP of 1.98.

The molecule `CC(=O)Nc1c([N+](=O)[O-])cccc1[N+](=O)[O-]` registered a logP of 0.56.

The molecule `CC(C)c1ccccc1[N+](=O)[O-]` returned a lipophilicity (logP) of 3.34.

The molecule `CC(=O)Nc1ccccc1F` came in with a logP of 1.03.

Molecule `CC(=O)Nc1ccc(OC(F)(F)F)cc1` returned a lipophilicity (logP) of 2.62.

Consider `CC(=O)Nc1cc(Cl)c(F)c(Cl)c1F`, for which the lipophilicity (logP) amounted to 2.9.

`CC(=O)Nc1cc(C)c(C)c(C)c1` displayed a lipophilicity (logP) of 2.5.

Regarding `NC(=O)c1c(F)cccc1Br`, the logP was determined as 0.63.

Consider `Cc1cccc(C)c1C(N)=O`, for which the logP was 0.9.

`CC(=O)Nc1ccc(C)c(Cl)c1` showed a log partition coefficient (logP) of 2.69.

The molecule `CCCCc1ccc(NC(C)=O)c([N+](=O)[O-])c1` registered a log partition coefficient (logP) of 3.1.

`COc1cccc([N+](=O)[O-])c1C`: the logP worked out at 2.68.

As to `NC(=O)c1c(Cl)cccc1Br`, the logP turned out to be 1.

`CCc1ccccc1C(N)=O` registered a logP of 1.17.

Regarding `CCc1cccc(C)c1NC(C)=O`, the lipophilicity (logP) amounted to 1.41.

With `Cc1cccc(Cl)c1C(N)=O`, the log partition coefficient (logP) was 0.89.

On to `CC(=O)Nc1ccc(Cl)cc1[N+](=O)[O-]`, for which the logP was 1.78.

Turning to `CC(=O)Nc1cccc(C)c1C`, the logP is 1.35.

In the case of `CC(=O)Nc1cc(Cl)ccc1C`, the log partition coefficient (logP) turned out to be 1.85.

`COc1ccc(OC)c(Cl)c1` displayed a logP of 2.69.

For the molecule `C=CCOc1cc(NC(C)=O)c(F)cc1Cl`, the logP amounted to 2.76.

`CC(=O)Nc1c(F)cccc1F` had a logP of 0.69.

In turn, `CC(=O)Nc1ccc(C)cc1[N+](=O)[O-]` returned a logP of 1.49.

Take `CC(=O)Nc1ccc(Cl)cc1Cl`: the lipophilicity (logP) came to 2.18.
